Reference: paper PMC8744835, “Sterically Hindered Quaternary Phosphonium Salts (QPSs): Antimicrobial Activity and Hemolytic and Cytotoxic Properties” (International Journal of Molecular Sciences, 2021)

How the values were obtained:
Chang liver cell line = assay: Cytotoxicity assay (Cytell Cell Imaging, DAPI/propidium iodide); type: cell-based, human; conditions: for IC50: Homo sapiens, Chang liver, read-out: IC50 (concentration that causes the death of 50% of the cells), Chang liver cells; for IC50 (concentration that causes the death of 50% of the cells): Chang liver cells
human erythrocytes = assay: Hemolytic activity; type: cell-based; conditions: red blood cells
Text: An important characteristic when assessing the biological activity of new chemical compounds is their cytotoxic effect on eukaryotic cells. The ability of an investigated compound to cause the destruction of human erythrocytes illustrates its toxic effect on the internal environment. The hemolysis assay is a simple screening test that can help in the study of cytotoxicity in more complex models. Cell lines obtained from various human organs and tissues that allow for adequate estimation of the effects of new potential drugs on cell metabolism can serve as experimental models.
The hemolytic activity of the QPSs was estimated by comparing the optical density of a solution containing the test compound with that of blood at 100% hemolysis. The experiments were carried out as previously described.

[1] = tested on: Staphylococcus aureus ATCC 6538P FDA 209P; assay: Antimicrobial activity, serial dilution technique in Mueller–Hinton Broth 2; type: cell-based; conditions: average of three ± SD, - means non-active; for MIC / MBC: Staphylococcus aureus, Sa; for MIC: read-out: Minimum Inhibitory Concentration (MIC), Sa; for MBC: read-out: Minimum Bactericidal and Fungicidal Concentration (MBC, MFC), Sa
How it was run: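 Using a broth serial dilution method in Mueller–Hinton Broth 2, S. aureus ATCC 6538P FDA 209P (3.0 × 10^5 cfu/mL) was exposed to compounds at 37 °C and observed daily over 5 days. MIC was the lowest concentration preventing growth; bacteriostatic absence of growth was also noted, with three replicate experiments.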

[2] = tested on: Enterococcus faecalis ATCC 2921; assay: as above; type: cell-based; conditions: average of three ± SD, - means non-active; for MIC / MBC: Enterococcus faecalis, ATCC2921, Ef; for MIC: read-out: Minimum Inhibitory Concentration (MIC), Ef; for MBC: read-out: Minimum Bactericidal and Fungicidal Concentration (MBC, MFC), Ef
How it was run: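 Antibacterial activity against Enterococcus faecalis ATCC 2921 was assessed by serial dilution in Mueller–Hinton Broth 2 with a bacterial load of 3.0 × 10^5 cfu/mL. Cultures were incubated at 37 °C, with growth recorded every 24 h for 5 days, and the experiment was performed three times.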

[3] = tested on: Bacillus cereus ATCC 10702 NCTC 8035; assay: as above; type: cell-based; conditions: average of three ± SD, - means non-active
How it was run: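 Compounds were serially diluted in Mueller–Hinton Broth 2 and inoculated with the Gram-positive strain Bacillus cereus ATCC 10702 NCTC 8035 at 3.0 × 10^5 cfu/mL, then incubated at 37 °C. Observations were taken every 24 h over 5 days in three repeat experiments. The MIC was the lowest concentration that stopped growth, with bacteriostatic absence of growth also noted.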

[4] = tested on: methicillin-resistant S. aureus MRSA-1; assay: as above; type: cell-based, Staphylococcus aureus; conditions: - means non-active
How it was run: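 Antimicrobial activity against methicillin-susceptible Staphylococcus aureus MRSA-1, a hospital isolate from a chronic tonsillitis patient that is resistant to fluoroquinolones and beta-lactams, was determined by serial dilution in Mueller–Hinton Broth 2. The bacterial load was 3.0 × 10^5 cfu/mL, incubation was at 37 °C, and growth was recorded every 24 h for 5 days.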

[5] = tested on: Escherichia coli ATCC 25922; assay: as above; type: cell-based; conditions: average of three ± SD, - means non-active
[6] = tested on: Pseudomonas aeruginosa ATCC 9027; assay: as above; type: cell-based; conditions: average of three ± SD, - means non-active
[7] = tested on: Escherichia coli ATCC 25922; assay: as above; type: cell-based; conditions: average of three ± SD, - means non-active; remark: listed apart in the source
How it was run: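 Growth inhibition is scored in Mueller–Hinton Broth 2 dilution series seeded with 3.0 × 10^5 cfu/mL and held at 37 °C for up to 5 days. Values reported are MICs, the lowest concentration without growth.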

[8] = tested on: Candida albicans ATCC 10231; assay: Fungicidal activity, serial dilution technique; type: cell-based; conditions: average of three ± SD, - means non-active
How it was run: (§1)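 Growth inhibition was scored every 24 h across 5 days at 37 °C in a broth serial dilution series (Mueller–Hinton Broth 2, 3.0 × 10^5 cfu/mL load). Triplicate experiments; minimum inhibitory concentration recorded.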

[9] = tested on: Trichophyton mentagrophytes var. gypseum 1773; assay: Fungicidal activity, serial dilution technique; type: cell-based; conditions: Tm; average of three ± SD; - means non-active
How it was run: as §1

[10] = tested on: methicillin-resistant S. aureus MRSA-2; assay: Antimicrobial activity, serial dilution technique in Mueller–Hinton Broth 2; type: cell-based, Staphylococcus aureus; conditions: - means non-active; for Minimum Inhibitory Concentration (MIC), MRSA-2: MRSA-2 (resistant to beta-lactams)
How it was run: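 Antimicrobial activity against methicillin-susceptible Staphylococcus aureus MRSA-2, a beta-lactam-resistant clinical isolate from a sinusitis patient at the Republican Clinical Hospital (Kazan), was assessed by serial dilution in Mueller–Hinton Broth 2. The inoculum was 3.0 × 10^5 cfu/mL. Cultures were incubated at 37 °C and read every 24 h for 5 days, in three repeat experiments.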

[11] = MRSA-1 (resistant to fluoroquinolones and beta-lactams)

`CC(C)(C)[P+](C)(C(C)(C)C)C(C)(C)C` [Compound 1a] was tested, and the IC50 (Chang liver cell line) was > 100 µg/mL and the “HC50 (concentration that causes 50% hemolysis of erythrocytes)” value (human erythrocytes) was > 125 µg/mL.
In the case of `CC[P+](C(C)(C)C)(C(C)(C)C)C(C)(C)C` [Compound 2a], the IC50 (Chang liver cell line) is reported as > 100 µg/mL and the “HC50 (concentration that causes 50% hemolysis of erythrocytes)” value (human erythrocytes) is reported as > 125 µg/mL.
`CCC[P+](C(C)(C)C)(C(C)(C)C)C(C)(C)C` [Compound 3a] was tested, and the IC50 (Chang liver cell line) was > 100 µg/mL and the “HC50 (concentration that causes 50% hemolysis of erythrocytes)” value (human erythrocytes) was > 125 µg/mL.
`CCCC[P+](C(C)(C)C)(C(C)(C)C)C(C)(C)C` [Compound 4a] was tested, and the IC50 (Chang liver cell line) was > 100 µg/mL and the “HC50 (concentration that causes 50% hemolysis of erythrocytes)” value (human erythrocytes) was > 125 µg/mL.
With `CCCCC[P+](C(C)(C)C)(C(C)(C)C)C(C)(C)C` [Compound 5b] the IC50 (Chang liver cell line) was > 100 µg/mL and the “HC50 (concentration that causes 50% hemolysis of erythrocytes)” value (human erythrocytes) was > 125 µg/mL.
In the case of `CCCCCC[P+](C(C)(C)C)(C(C)(C)C)C(C)(C)C` [Compound 6a], the IC50 (Chang liver cell line) is reported as > 100 µg/mL, the “HC50 (concentration that causes 50% hemolysis of erythrocytes)” value (human erythrocytes) is reported as > 125 µg/mL and the MIC [1] is reported as 125 ± 11 µg/mL.
With `CCCCCC[P+](C(C)(C)C)(C(C)(C)C)C(C)(C)C` [Compound 6b] the “IC50 (concentration that causes the death of 50% of the cells)” value (Chang liver cell line) was > 100 µg/mL, the “HC50 (concentration that causes 50% hemolysis of erythrocytes)” value (human erythrocytes) was > 125 µg/mL and the “Minimum Inhibitory Concentration (MIC), Sa” value [1] was 250 ± 19 µg/mL.
With `CCCCCCC[P+](C(C)(C)C)(C(C)(C)C)C(C)(C)C` [Compound 7a] the IC50 (Chang liver cell line) was > 100 µg/mL, the “HC50 (concentration that causes 50% hemolysis of erythrocytes)” value (human erythrocytes) was > 125 µg/mL and the MIC [2] was 125 µg/mL. The MIC ([3]; Bacillus cereus, Bc, read-out: Minimum Inhibitory Concentration (MIC), Bc) was 125 ± 10 µg/mL and the MIC [1] was 62.5 ± 5.5 µg/mL.
With `CCCCCCC[P+](C(C)(C)C)(C(C)(C)C)C(C)(C)C` [Compound 7b] the “IC50 (concentration that causes the death of 50% of the cells)” value (Chang liver cell line) was > 100 µg/mL, the “HC50 (concentration that causes 50% hemolysis of erythrocytes)” value (human erythrocytes) was > 125 µg/mL and the MBC [1] was 62.5 µg/mL.
With `CCCCCCCC[P+](C(C)(C)C)(C(C)(C)C)C(C)(C)C` [Compound 8b] the “IC50 (concentration that causes the death of 50% of the cells)” value (Chang liver cell line) was > 100 µg/mL, the “HC50 (concentration that causes 50% hemolysis of erythrocytes)” value (human erythrocytes) was > 125 µg/mL and the MBC [2] was 125 µg/mL. For the same compound, the “Minimum Bactericidal and Fungicidal Concentration (MBC, MFC), Sa” value [1] was 31.3 µg/mL, the “Minimum Inhibitory Concentration (MIC), Sa” value [1] was 31.3 µg/mL and the “Minimum Inhibitory Concentration (MIC), MRSA-1” value [4, 11] was 31.3 µg/mL.
Compound `CCCCCCCCCCCCCCCCCCCC[P+](C(C)(C)C)(C(C)(C)C)C(C)(C)C` [Compound 20a] has an MBC ([5]; Escherichia coli, ATCC25922, Ec, read-out: Minimum Bactericidal and Fungicidal Concentration (MBC, MFC), Ec) of 62.5 ± 5.5 µg/mL, an MBC [2] of 7.8 ± 0.6 µg/mL and an MIC [2] of 3.9 ± 0.2 µg/mL. The MBC ([3]; Bacillus cereus, Bc, read-out: Minimum Bactericidal and Fungicidal Concentration (MBC, MFC), Bc) was 31.3 ± 2.6 µg/mL, the “Minimum Inhibitory Concentration (MIC), Bc” value [3] was 15.6 ± 1.3 µg/mL and the “Minimum Inhibitory Concentration (MIC), Pa” value [6] was 31.3 ± 2.4 µg/mL. It also gave an MBC ([6]; Pseudomonas aeruginosa, ATCC9027, Pa, read-out: Minimum Bactericidal and Fungicidal Concentration (MBC, MFC), Pa) of 125 ± 11 µg/mL, an MIC ([7]; Escherichia coli, ATCC25922, Ec, read-out: Minimum Inhibitory Concentration (MIC), Ec) of 62.5 ± 5.5 µg/mL and an MBC [1] of 3.9 ± 0.2 µg/mL. The MIC [1] was 3.9 ± 0.2 µg/mL, the “Minimum Inhibitory Concentration (MIC), Ca” value ([8]; Ca) was 31.3 ± 2.5 µg/mL and the MBC ([8]; Candida albicans, ATCC10231, Ca, read-out: Minimum Bactericidal and Fungicidal Concentration (MBC, MFC), Ca) was 62.5 ± 5.7 µg/mL. For the same compound, the “Minimum Bactericidal and Fungicidal Concentration (MBC, MFC), Tm” value [9] was 31.3 ± 2.5 µg/mL, the “Minimum Inhibitory Concentration (MIC), Tm” value [9] was 31.3 ± 2.3 µg/mL and the “Minimum Inhibitory Concentration (MIC), MRSA-2” value [10] was 1.9 ± 0.1 µg/mL. For the same compound, the MBC ([10]; Staphylococcus aureus, MRSA, MRSA-2, read-out: Minimum Bactericidal and Fungicidal Concentration (MBC, MFC), MRSA-2) was 15.6 ± 1.2 µg/mL, the “Minimum Bactericidal and Fungicidal Concentration (MBC, MFC), MRSA-1” value [4] was 31.3 ± 2.7 µg/mL and the MIC ([4]; Staphylococcus aureus, MRSA, MRSA-1 (resistant to fluoroquinolones and beta-lactams), read-out: Minimum Inhibitory Concentration (MIC), MRSA-1) was 7.8 ± 0.6 µg/mL.
`CCCCCCCCCCCCCCCCCCCC[P+](C(C)(C)C)(C(C)(C)C)C(C)(C)C` [Compound 20b] was tested, and the “Minimum Bactericidal and Fungicidal Concentration (MBC, MFC), Ec” value ([5]; Ec) was 62.5 ± 5.5 µg/mL, the “Minimum Bactericidal and Fungicidal Concentration (MBC, MFC), Ef” value ([2]; Ef) was 15.6 ± 1.3 µg/mL and the “Minimum Inhibitory Concentration (MIC), Ef” value ([2]; Ef) was 7.8 ± 0.6 µg/mL. For the same compound, the “Minimum Inhibitory Concentration (MIC), Bc” value [3] was 62.5 ± 5.5 µg/mL, the “Minimum Inhibitory Concentration (MIC), Pa” value [6] was 125 ± 11 µg/mL and the “Minimum Inhibitory Concentration (MIC), Ec” value ([7]; Ec) was 62.5 ± 5.7 µg/mL. For the same compound, the “Minimum Bactericidal and Fungicidal Concentration (MBC, MFC), Sa” value [1] was 3.9 ± 0.3 µg/mL, the “Minimum Inhibitory Concentration (MIC), Sa” value [1] was 3.9 ± 0.2 µg/mL and the “Minimum Bactericidal and Fungicidal Concentration (MBC, MFC), Ca” value ([8]; Ca) was 31.3 ± 2.1 µg/mL. The “Minimum Inhibitory Concentration (MIC), Ca” value ([8]; Ca) was 15.6 ± 1.3 µg/mL, the “Minimum Bactericidal and Fungicidal Concentration (MBC, MFC), Tm” value [9] was 250 ± 18 µg/mL and the “Minimum Inhibitory Concentration (MIC), Tm” value [9] was 250 ± 18 µg/mL. The “Minimum Inhibitory Concentration (MIC), MRSA-2” value [10] was 7.8 ± 0.6 µg/mL, the “Minimum Bactericidal and Fungicidal Concentration (MBC, MFC), MRSA-2” value ([10]; MRSA-2) was 7.8 ± 0.7 µg/mL and the “Minimum Inhibitory Concentration (MIC), MRSA-1” value [4, 11] was 15.6 ± 1.3 µg/mL. For the same compound, the “Minimum Bactericidal and Fungicidal Concentration (MBC, MFC), MRSA-1” value [4] was 15.6 ± 1.2 µg/mL.
